Data reported in patent publication US20210403435A1, “HERBICIDAL COMPOUNDS” (SYNGENTA CROP PROTECTION AG, priority 2018, published 2021).
Structures can show the parent of a compound that is named as a salt.

Legend:
Assay in all cases: Post-emergence efficacy, glasshouse, evaluated after 13 days
Type in all cases: in vivo
[1] = test system: Eleusine indica (ELEIN); conditions: post-emergence application, 500 g/Ha, evaluated after 13 days; for pest or weed control at 500 g/ha: Eleusine indica, 312 h, read-out: Control of weed species ELEIN (100=total damage to plant; 0=no damage to plant)
Outline: (§1)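 Damage was rated visually 13 days after treatment on a 0–100 scale, where 100 meant total damage. Plants had been raised for 14 days in soil under glasshouse conditions (24/16 °C, 14 h light, 65% humidity) before spraying with an aqueous dilution of an IF50-based formulation.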

[2] = test system: Digitaria sanguinalis (DIGSA); conditions: post-emergence application, 500 g/Ha, evaluated after 13 days; for pest or weed control at 500 g/ha: Digitaria sanguinalis, 312 h, read-out: Control of weed species DIGSA (100=total damage to plant; 0=no damage to plant)
Outline: as §1

[3] = test system: Euphorbia heterophylla (EPHHL); conditions: post-emergence application, 500 g/Ha, evaluated after 13 days; for pest or weed control at 500 g/ha: Euphorbia heterophylla, 312 h, read-out: Control of weed species EPHHL (100=total damage to plant; 0=no damage to plant)
Outline: as §1

[4] = test system: Amaranthus palmeri (AMAPA); conditions: post-emergence application, 500 g/Ha, evaluated after 13 days; for pest or weed control at 500 g/ha: Amaranthus palmeri, 312 h, read-out: Control of weed species AMAPA (100=total damage to plant; 0=no damage to plant)
Outline: as §1

[5] = test system: Lolium perenne (LOLPE); conditions: post-emergence application, 500 g/Ha, evaluated after 13 days; for pest or weed control at 500 g/ha: Lolium perenne, 312 h, read-out: Control of weed species LOLPE (100=total damage to plant; 0=no damage to plant)
Outline: as §1

[6] = test system: Ipomoea hederacea (IPOHE); conditions: post-emergence application, 500 g/Ha, evaluated after 13 days; for pest or weed control at 500 g/ha: Ipomoea hederacea, 312 h, read-out: Control of weed species IPOHE (100=total damage to plant; 0=no damage to plant)
Outline: as §1

[7] = test system: Echinochloa crus-galli (ECHCG); conditions: post-emergence application, 500 g/Ha, evaluated after 13 days; for pest or weed control at 500 g/ha: Echinochloa crus-galli, 312 h, read-out: Control of weed species ECHCG (100=total damage to plant; 0=no damage to plant)
Outline: as §1

[8] = test system: Setaria faberi (SETFA); conditions: post-emergence application, 500 g/Ha, evaluated after 13 days; for pest or weed control at 500 g/ha: Setaria faberi, 312 h, read-out: Control of weed species SETFA (100=total damage to plant; 0=no damage to plant)
Outline: as §1

[9] = test system: Chenopodium album (CHEAL); conditions: post-emergence application, 500 g/Ha, evaluated after 13 days; for pest or weed control at 500 g/ha: Chenopodium album, 312 h, read-out: Control of weed species CHEAL (100=total damage to plant; 0=no damage to plant)
Outline: as §1

Row | SMILES | Control of weed species ELEIN (100=total damage to plant; 0=no damage to plant) [1] | Control of weed species DIGSA (100=total damage to plant; 0=no damage to plant) [2] | Control of weed species EPHHL (100=total damage to plant; 0=no damage to plant) [3] | Control of weed species AMAPA (100=total damage to plant; 0=no damage to plant) [4] | Control of weed species LOLPE (100=total damage to plant; 0=no damage to plant) [5] | Control of weed species IPOHE (100=total damage to plant; 0=no damage to plant) [6] | Control of weed species ECHCG (100=total damage to plant; 0=no damage to plant) [7] | Control of weed species SETFA (100=total damage to plant; 0=no damage to plant) [8] | Control of weed species CHEAL (100=total damage to plant; 0=no damage to plant) [9] | pest or weed control at 500 g/ha [1] [%] | pest or weed control at 500 g/ha [2] [%] | pest or weed control at 500 g/ha [3] [%] | pest or weed control at 500 g/ha [4] [%] | pest or weed control at 500 g/ha [5] [%] | pest or weed control at 500 g/ha [6] [%] | pest or weed control at 500 g/ha [7] [%] | pest or weed control at 500 g/ha [8] [%] | pest or weed control at 500 g/ha [9] [%]
1 | CN(NC(=O)c1cc[n+](CCC(=O)O)nc1)C(=O)OC(C)(C)C.O=C([O-])C(F)(F)F [Compound A72] | 30 | 40 | 20 | 100 | 20 | 20 | 20 | 20 | 20 | – | – | – | – | – | – | – | – | –
2 | CC(=O)CCNC(=O)c1cc[n+](CCC(=O)O)nc1 [Compound A130] | – | – | – | – | – | – | – | – | – | 70 | 100 | 20 | 100 | 70 | 10 | 50 | 100 | 90
3 | O=C(Nc1ccccc1O)c1cc[n+](CCS(=O)(=O)[O-])nc1 [Compound A84, 2-[4-[(2-hydroxyphenyl)carbamoyl]pyridazin-1-ium-1-yl]ethanesulfonate] | – | – | – | – | – | – | – | – | – | 10 | 50 | 30 | 0 | 0 | 10 | 20 | 20 | 30
4 | CCNC(=O)c1cc[n+](CCC(=O)O)nc1 [Compound A43] | – | – | – | – | – | – | – | – | – | 100 | 100 | 100 | 100 | 50 | 70 | 60 | 100 | 90
5 | CNC(=O)c1cn[n+](CCC(=O)O)cc1C [Compound A53] | – | – | – | – | – | – | – | – | – | 40 | 80 | 60 | 90 | 20 | 50 | 70 | 90 | 70
6 | CN(C(=O)c1cc[n+](CCC(=O)O)nc1)c1ccccc1 [Compound A38, 3-[4-[methyl(phenyl)carbamoyl]pyridazin-1-ium-1-yl]propanoic acid trifluoroacetate] | – | – | – | – | – | – | – | – | – | 60 | 70 | 80 | 100 | 20 | 40 | 60 | 90 | 90
7 | N#CCNC(=O)c1cc[n+](CCC(=O)O)nc1 [Compound A90] | – | – | – | – | – | – | – | – | – | 100 | 100 | 100 | 100 | 70 | 80 | 100 | 100 | 90
8 | CCNC(=O)c1cc[n+](CCCOS(=O)(=O)[O-])nc1 [Compound A83] | 90 | 90 | 90 | 90 | 80 | 80 | 90 | 60 | 90 | – | – | – | – | – | – | – | – | –
9 | O=C(O)CC[n+]1ccc(C(=O)NCCc2ncccn2)cn1 [Compound A145] | – | – | – | – | – | – | – | – | – | 100 | 100 | 0 | 100 | 70 | 30 | 60 | 80 | 100
10 | CS(=O)(=O)CCNC(=O)c1cc[n+](CCNS(=O)(=O)[O-])nc1 [Compound A136] | – | – | – | – | – | – | – | – | – | 80 | 100 | 60 | 0 | 70 | 30 | 50 | 30 | 100
11 | CC(O)CNC(=O)c1cc[n+](CCC(=O)O)nc1 (stereo not drawn) [Compound A128] | – | – | – | – | – | – | – | – | – | 90 | 100 | 100 | 100 | 80 | 30 | 40 | 90 | 90
12 | CCCNC(=O)c1cc[n+](CCC(=O)O)nc1 [Compound A46] | – | – | – | – | – | – | – | – | – | 10 | 90 | 100 | 50 | 20 | 40 | 80 | 100 | 70
13 | C=CCNC(=O)c1cc[n+](CCS(=O)(=O)[O-])nc1 [Compound A18] | – | – | – | – | – | – | – | – | – | 90 | 80 | 70 | 100 | 70 | 70 | 90 | 50 | 90
14 | O=C(O)CC[n+]1ccc(C(=O)NCc2nccs2)cn1 [Compound A146] | – | – | – | – | – | – | – | – | – | 80 | 100 | 20 | 80 | 100 | 20 | 100 | 90 | 80
